Patent US20240228535A1 (priority 2022, published 2024)

Target: SARS2 coronavirus 3CL protease (Severe acute respiratory syndrome coronavirus 2, UniProt P0DTD1)
Experiment: biochemical
Settings: 5 nM enzyme, 30 min pre-incubation with compound, 15 μM peptide substrate, 4 h at room temperature; read-out: FRET Potency (nM); IC50 values in the SARS2 3CLPro FRET assay

Structure (SMILES) | IC50
CNC(=O)C(=O)[C@H](C[C@@H]1C[C@@H](C)NC1=O)NC(=O)c1cc(Cl)cc(F)c1NC(=O)c1ccnc(C(F)(F)F)c1 [Example 224, N-[4-chloro-2-fluoro-6-[[(1S)-3-(methylamino)-1-[[(3S,5R)-5-methyl-2-oxo-pyrrolidin-3-yl]methyl]-2,3-dioxo-propyl]carbamoyl]phenyl]-2-(trifluoromethyl)pyridine-4-carboxamide] | 7.2 nM
O=C(CCC(F)(F)F)Nc1cc(F)c(Cl)cc1C(=O)N[C@@H](C[C@@H]1CCNC1=O)C(=O)C(=O)NC1CC1 [Example 56, 5-chloro-N-[(1S)-3-(cyclopropylamino)-2,3-dioxo-1-[[(3S)-2-oxopyrrolidin-3-yl]methyl]propyl]-4-fluoro-2-(4,4,4-trifluorobutanoylamino) benzamide] | 8.1 nM
CNC(=O)C(=O)[C@H](C[C@@H]1C[C@@H](C)NC1=O)NC(=O)c1cc(Cl)ccc1NC(=O)C(C)C [Example 125, 5-chloro-N-[(1S)-3-(methylamino)-1-[[(3S,5R)-5-methyl-2-oxo-pyrrolidin-3-yl]methyl]-2,3-dioxo-propyl]-2-(2-methylpropanoylamino) benzamide] | 5.6 nM
CNC(=O)C(=O)C(CC1C[C@@H](C(F)(F)F)NC1=O)NC(=O)c1cc(C#N)ccc1NC(=O)CCC(F)(F)F (stereo partly drawn) [Example 88, 5-cyano-N-[3-(methylamino)-2,3-dioxo-1-[[(5S)-2-oxo-5-(trifluoromethyl)pyrrolidin-3-yl]methyl]propyl]-2-(4,4,4-trifluorobutanoylamino) benzamide] | 114 nM
C[C@@H]1C[C@@H](C[C@H](NC(=O)c2cc(Cl)ccc2NC(=O)CCC(F)(F)F)C(=O)C(=O)NC2CC2)C(=O)N1 [Example 3, 5-chloro-N—((S)-4-(cyclopropylamino)-1-((3S,5R)-5-methyl-2-oxopyrrolidin-3-yl)-3,4-dioxobutan-2-yl)-2-(4,4,4-trifluorobutanamido)benzamide] | 6.9 nM
CNC(=O)C(=O)[C@H](C[C@@H]1C[C@@H](C)NC1=O)NC(=O)c1cc(Cl)c(F)cc1NC(=O)OC [Example 132, methyl N-[4-chloro-5-fluoro-2-[[(1S)-3-(methylamino)-1-[[(3S,5R)-5-methyl-2-oxo-pyrrolidin-3-yl]methyl]-2,3-dioxo-propyl]carbamoyl]phenyl] carbamate] | 13.8 nM
CNC(=O)C(=O)[C@H](C[C@@H]1C[C@@H](C)NC1=O)NC(=O)c1cc(Cl)ccc1NC(=O)OC1CC1(F)F (stereo partly drawn) [Example 172, (2,2-difluorocyclopropyl) N-[4-chloro-2-[(1S)-3-(methylamino)-1-[[(3S,5R)-5-methyl-2-oxo-pyrrolidin-3-yl]methyl]-2,3-dioxo-propyl]carbamoyl]phenyl] carbamate] | 3.7 nM
C[C@@H]1C[C@@H](C[C@H](NC(=O)c2cc(C#N)ccc2NC(=O)C23CC(C(F)(F)F)(C2)C3)C(=O)C(=O)NC2CC2)C(=O)N1 [Example 17] | 31.1 nM
CNC(=O)C(=O)[C@H](C[C@@H]1CCNC1=O)NC(=O)c1cc(Cl)ccc1NC(=O)OC1(C)CC1 [Example 138, (1-methylcyclopropyl) N-[4-chloro-2-[[(1S)-3-(methylamino)-2,3-dioxo-1-[[(3S)-2-oxopyrrolidin-3-yl]methyl]propyl]carbamoyl]phenyl]carbamate] | 18.6 nM
CNC(=O)C(=O)[C@H](C[C@@H]1C[C@@H](C)NC1=O)NC(=O)c1cc(Cl)ccc1NC(=O)c1cccc(C(F)(F)F)c1 [Example 45, 5-chloro-N-[(1S)-3-(methylamino)-1-[[(3S,5R)-5-methyl-2-oxo-pyrrolidin-3-yl]methyl]-2,3-dioxo-propyl]-2-[[3-(trifluoromethyl)benzoyl]amino]benzamide] | 9.4 nM
C[C@@H]1C[C@@H](C[C@H](NC(=O)c2cc(C(F)F)ccc2NC(=O)C2(C(F)(F)F)CC2)C(=O)C(=O)NC2CC2)C(=O)N1 [Example 220, N-[(1S)-3-(cyclopropylamino)-1-[[(3S,5R)-5-methyl-2-oxo-pyrrolidin-3-yl]methyl]-2,3-dioxo-propyl]-5-(difluoromethyl)-2-[[1-(trifluoromethyl)cyclopropane-carbonyl]amino]benzamide] | 60.3 nM
CNC(=O)C(=O)[C@H](C[C@@H]1C[C@@H](C(F)(F)F)NC1=O)NC(=O)c1cc(Cl)ccc1NC(=O)C1CC(F)(F)C1 [Example 41, 5-chloro-2-[(3,3-difluorocyclobutanecarbonyl)amino]-N-[(1S)-3-(methylamino)-2,3-dioxo-1-[[(3R,5S)-2-oxo-5-(trifluoromethyl)pyrrolidin-3-yl]methyl]propyl]benzamide] | 9.9 nM
C[C@@H]1C[C@@H](C[C@H](NC(=O)c2cc(Cl)cnc2NC(=O)CCC(F)(F)F)C(=O)C(=O)NC2CC2)C(=O)N1 [Example 52, 5-chloro-N-[(1S)-3-(cyclopropylamino)-1-[[(3S,5R)-5-methyl-2-oxo-pyrrolidin-3-yl]methyl]-2,3-dioxo-propyl]-2-(4,4,4-trifluorobutanoylamino) pyridine-3-carboxamide] | 8.4 nM
CNC(=O)C(=O)[C@H](C[C@@H]1C[C@@H](C)NC1=O)NC(=O)c1cc(Cl)ccc1NC(=O)c1cncc(C#N)c1 [Example 183] | 10.1 nM
C[C@@H]1C[C@@H](C[C@H](NC(=O)c2cc(OC(F)F)ccc2NC(=O)c2cccc(C(F)(F)F)c2)C(=O)C(=O)NC2CC2)C(=O)N1 [Example 20, N-[(1S)-3-(cyclopropylamino)-1-[[(3S,5R)-5-methyl-2-oxo-pyrrolidin-3-yl]methyl]-2,3-dioxo-propyl]-5-(difluoromethoxy)-2-[[3-(trifluoromethyl)benzoyl]amino]benzamide] | 26.4 nM
C[C@@H]1C[C@@H](C[C@H](NC(=O)c2cc(Cl)ccc2NC(=O)C2CCOCC2)C(=O)C(=O)NC2CC2)C(=O)N1 [Example 192, N-[4-chloro-2-[[(1S)-3-(cyclopropylamino)-1-[[(3S,5R)-5-methyl-2-oxo-pyrrolidin-3-yl]methyl]-2,3-dioxo-propyl]carbamoyl]phenyl]tetra-hydropyran-4-carboxamide] | 10.3 nM
CNC(=O)C(=O)[C@H](C[C@@H]1C[C@@H](C)NC1=O)NC(=O)c1cc(Cl)ccc1NC(=O)OC(C)C [Example 31, isopropyl N-[4-chloro-2-[[(1S)-3-(methylamino)-1-[[(3S,5R)-5-methyl-2-oxo-pyrrolidin-3-yl]methyl]-2,3-dioxo-propyl]carbamoyl]phenyl] carbamate] | 12.4 nM
CC(C(=O)Nc1ccc(Cl)cc1C(=O)N[C@@H](C[C@@H]1C[C@@H](C)NC1=O)C(=O)C(=O)NC1CC1)c1cscn1 (stereo partly drawn) [Example 93, 5-chloro-N-[(1S)-3-(cyclopropylamino)-1-[[(3S,5R)-5-methyl-2-oxo-pyrrolidin-3-yl]methyl]-2,3-dioxo-propyl]-2-(2-thiazol-4-ylpropanoylamino)benzamide] | 12.6 nM
CNC(=O)C(=O)[C@H](C[C@@H]1C[C@@H](C)NC1=O)NC(=O)c1cc(Cl)ccc1NC(=O)OCC1CC1 [Example 152, cyclopropylmethyl N-[4-chloro-2-[[(1S)-3-(methylamino)-1-[[(3S,5R)-5-methyl-2-oxo-pyrrolidin-3-yl]methyl]-2,3-dioxo-propyl]carbamoyl]phenyl] carbamate] | 5 nM
CNC(=O)C(=O)[C@H](C[C@@H]1C[C@@H](C)NC1=O)NC(=O)c1cc(C(F)F)ccc1NC(=O)OC [Example 130, methyl N-[4-(difluoromethyl)-2-[[(1S)-3-(methylamino)-1-[[(3S,5R)-5-methyl-2-oxo-pyrrolidin-3-yl]methyl]-2,3-dioxo-propyl]carbamoyl]phenyl] carbamate] | 20.7 nM
C[C@@H]1C[C@@H](C[C@H](NC(=O)c2cc(C#N)ccc2NC(=O)c2cccc(C(F)(F)F)c2)C(=O)C(=O)NC2CC2)C(=O)N1 [Example 61, 5-cyano-N-[(1S)-3-(cyclopropylamino)-1-[[(3S,5R)-5-methyl-2-oxo-pyrrolidin-3-yl]methyl]-2,3-dioxo-propyl]-2-[[3-(trifluoromethyl)benzoyl]amino]benzamide] | 7.7 nM
C[C@@H]1C[C@@H](C[C@H](NC(=O)c2cc(Cl)ccc2NC(=O)c2cncc(C(F)(F)F)c2)C(=O)C(=O)NC2CC2)C(=O)N1 [Example 94, N-[4-chloro-2-[[(1S)-3-(cyclopropylamino)-1-[[(3S,5R)-5-methyl-2-oxo-pyrrolidin-3-yl]methyl]-2,3-dioxo-propyl]carbamoyl]phenyl]-5-(trifluoromethyl)pyridine-3-carboxamide] | 10.6 nM
O=C(CCC(F)(F)F)Nc1ccc(Cl)cc1C(=O)N[C@@H](C[C@@H]1C[C@@H](C(F)(F)F)NC1=O)C(=O)C(=O)NC1CC1 [Example 68, 5-chloro-N-[(1S)-3-(cyclopropylamino)-2,3-dioxo-1-[[(3R,5S)-2-oxo-5-(trifluoromethyl)pyrrolidin-3-yl]methyl]propyl]-2-(4,4,4-trifluorobutanoylamino) benzamide] | 7 nM
CC(OC(=O)Nc1ccc(Cl)cc1C(=O)N[C@@H](C[C@@H]1C[C@@H](C)NC1=O)C(=O)C(=O)NC1CC1)C(F)(F)F (stereo partly drawn) [Example 211, (2,2,2-trifluoro-1-methyl-ethyl) N-[4-chloro-2-[[(1S)-3-(cyclopropylamino)-1-[[(3S,5R)-5-methyl-2-oxo-pyrrolidin-3-yl]methyl]-2,3-dioxo-propyl]carbamoyl]phenyl] carbamate] | 7.3 nM
CNC(=O)C(=O)[C@H](C[C@@H]1C[C@@H](C)NC1=O)NC(=O)c1cc(Cl)c(F)cc1NC(=O)OC1CC1 [Example 154, cyclopropyl N-[4-chloro-5-fluoro-2-[(1S)-3-(methylamino)-1-[[(3S,5R)-5-methyl-2-oxo-pyrrolidin-3-yl]methyl]-2,3-dioxo-propyl]carbamoyl]phenyl] carbamate] | 4.5 nM
C[C@@H]1C[C@@H](C[C@H](NC(=O)c2cc(Cl)ccc2NC(=O)C(C)(C)C(F)(F)F)C(=O)C(=O)NC2CC2)C(=O)N1 [Example 15, 5-chloro-N-[(1S)-3-(cyclopropylamino)-1-[[(3S,5R)-5-methyl-2-oxo-pyrrolidin-3-yl]methyl]-2,3-dioxo-propyl]-2-[(3,3,3-trifluoro-2,2-dimethyl-propanoyl)amino]benzamide] | 33.5 nM
